Laboratory results published in ChEMBL document CHEMBL1201862, “PubChem BioAssay data set” (2004).
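Grown in 96-well plates, cells were treated for 48 hours with each compound at five concentrations. Insufficient inhibition: endpoint recorded as highest concentration tested. GI50 = concentration required for 50% inhibition of growth.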 Active and inactive are the calls of the source. Cut-off read from the data, not from the text of the source: active = GI50 up to about 1.1 µM and inactive = higher.

Legend:
Experiment in all cases: NCI tumour cell line growth inhibition, 48 h
HCT-15 = system: HCT-15
HOP-92 = system: HOP-92
SK-MEL-2 = system: SK-MEL-2
T47D = system: T47D
NCI-H226 = system: NCI-H226
MCF7 = system: MCF7
SK-OV-3 = system: SK-OV-3
COLO 205 = system: COLO 205
MOLT-4 = system: MOLT-4
786-0 = system: 786-0
MDA-MB-435 = system: MDA-MB-435
BT-549 = system: BT-549
SN12C = system: SN12C
HT-29 = system: HT-29
CCRF-CEM = system: CCRF-CEM
SF-295 = system: SF-295
RPMI-8226 = system: RPMI-8226
Hs-578T = system: Hs-578T
A498 = system: A498
HOP-62 = system: HOP-62

O=C(N/N=C/c1c(-c2ccccc2)no[n+]1[O-])N1CCOCC1
GI50 (HCT-15): > 100 µM | GI50 (HOP-92): > 100 µM (inactive) | GI50 (SK-MEL-2): > 100 µM (inactive) | GI50 (T47D): > 100 µM (inactive) | GI50 (NCI-H226): > 100 µM (inactive) | GI50 (MCF7): > 100 µM (inactive) | GI50 (SK-OV-3): > 100 µM (inactive) | GI50 (COLO 205): > 100 µM (inactive) | GI50 (MOLT-4): 26.3 µM (inactive) | GI50 (786-0): > 100 µM (inactive) | GI50 (MDA-MB-435): > 100 µM (inactive) | GI50 (BT-549): > 100 µM (inactive) | GI50 (SN12C): > 100 µM (inactive) | GI50 (HT-29): > 100 µM (inactive) | GI50 (CCRF-CEM): > 100 µM (inactive) | GI50 (SF-295): > 100 µM (inactive) | GI50 (RPMI-8226): > 100 µM (inactive) | GI50 (Hs-578T): > 100 µM (inactive) | GI50 (A498): > 100 µM (inactive) | GI50 (HOP-62): > 100 µM (inactive)

Cc1n(Cc2ccccc2)c2c([n+]1C)C(=O)c1ccccc1C2=O
GI50 (HCT-15): 2.56 µM | GI50 (HOP-92): 0.369 µM (active) | GI50 (SK-MEL-2): 0.132 µM (active) | GI50 (T47D): 0.215 µM (active) | GI50 (NCI-H226): 0.237 µM (active) | GI50 (MCF7): 0.0158 µM (active) | GI50 (SK-OV-3): 0.389 µM (active) | GI50 (COLO 205): < 0.01 µM (active) | GI50 (MOLT-4): 0.0421 µM (active) | GI50 (786-0): 0.0845 µM (active) | GI50 (MDA-MB-435): 0.183 µM (active) | GI50 (BT-549): 0.0822 µM (active) | GI50 (SN12C): 0.0318 µM (active) | GI50 (HT-29): 0.0417 µM (active) | GI50 (CCRF-CEM): 0.456 µM (active) | GI50 (SF-295): 0.199 µM (active) | GI50 (RPMI-8226): 0.0296 µM (active) | GI50 (Hs-578T): 0.415 µM (active) | GI50 (A498): 0.129 µM (active) | GI50 (HOP-62): 0.0407 µM (active)

O=c1cc(-c2ccccc2)[nH]c2ccc(N3CCOCC3)cc12
GI50 (HCT-15): 0.0241 µM | GI50 (HOP-92): 0.0622 µM (active) | GI50 (SK-MEL-2): 22.5 µM (inactive) | GI50 (T47D): > 100 µM (inactive) | GI50 (NCI-H226): 0.0319 µM (active) | GI50 (MCF7): 0.0327 µM (active) | GI50 (SK-OV-3): 0.0327 µM (active) | GI50 (COLO 205): 0.0182 µM (active) | GI50 (MOLT-4): 0.104 µM (active) | GI50 (786-0): 0.0363 µM (active) | GI50 (MDA-MB-435): < 0.01 µM (active) | GI50 (BT-549): 23.8 µM (inactive) | GI50 (SN12C): 0.0467 µM (active) | GI50 (HT-29): 0.0211 µM (active) | GI50 (CCRF-CEM): 0.0144 µM (active) | GI50 (SF-295): 0.0236 µM (active) | GI50 (RPMI-8226): 0.065 µM (active) | GI50 (Hs-578T): 0.0239 µM (active) | GI50 (A498): 0.0413 µM (active) | GI50 (HOP-62): 0.0241 µM (active)

CC(C)(Br)C(Br)CC/C(=C/CBr)CBr.CC(C)(Br)C(Br)CC/C(=C\CBr)CBr (stereo not given)
GI50 (HCT-15): 2.51 µM | GI50 (HOP-92): 4.33 µM (inactive) | GI50 (SK-MEL-2): 3.19 µM (inactive) | GI50 (T47D): 2.76 µM (inactive) | GI50 (NCI-H226): 14.2 µM (inactive) | GI50 (MCF7): 3.29 µM (inactive) | GI50 (SK-OV-3): 21.4 µM (inactive) | GI50 (COLO 205): 3.27 µM (inactive) | GI50 (MOLT-4): 2.1 µM (inactive) | GI50 (786-0): 1.95 µM (inactive) | GI50 (MDA-MB-435): 3.69 µM (inactive) | GI50 (BT-549): 2.45 µM (inactive) | GI50 (SN12C): 2 µM (inactive) | GI50 (HT-29): 3.02 µM (inactive) | GI50 (CCRF-CEM): 0.91 µM (active) | GI50 (SF-295): 3.46 µM (inactive) | GI50 (RPMI-8226): 1.47 µM (inactive) | GI50 (Hs-578T): 19.1 µM (inactive) | GI50 (A498): 20.9 µM (inactive) | GI50 (HOP-62): 2.89 µM (inactive)

CN(C)c1ccc2nc3c(C(=O)O)cc(O)c(O)c3[o+]c2c1
GI50 (HCT-15): 37.5 µM | GI50 (HOP-92): 67 µM (inactive) | GI50 (SK-MEL-2): 16.3 µM (inactive) | GI50 (T47D): 15.1 µM (inactive) | GI50 (NCI-H226): 56.5 µM (inactive) | GI50 (MCF7): 21.1 µM (inactive) | GI50 (SK-OV-3): 25 µM (inactive) | GI50 (COLO 205): 24.7 µM (inactive) | GI50 (MOLT-4): 14.4 µM (inactive) | GI50 (786-0): 29.1 µM (inactive) | GI50 (MDA-MB-435): 21.2 µM (inactive) | GI50 (BT-549): 20.9 µM (inactive) | GI50 (SN12C): 20.2 µM (inactive) | GI50 (HT-29): 38.5 µM (inactive) | GI50 (CCRF-CEM): 10.5 µM (inactive) | GI50 (SF-295): > 100 µM (inactive) | GI50 (RPMI-8226): 18.8 µM (inactive) | GI50 (Hs-578T): 68.4 µM (inactive) | GI50 (A498): > 100 µM (inactive) | GI50 (HOP-62): 52.8 µM (inactive)

C=C(C=O)c1c2c(nc3ccccc13)C(=O)c1ccccc1C2=O
GI50 (HCT-15): 0.298 µM | GI50 (HOP-92): 1.67 µM (inactive) | GI50 (SK-MEL-2): 1.37 µM (inactive) | GI50 (T47D): 0.646 µM (active) | GI50 (NCI-H226): 0.966 µM (active) | GI50 (MCF7): 0.429 µM (active) | GI50 (SK-OV-3): 2.9 µM (inactive) | GI50 (COLO 205): 1.1 µM (active) | GI50 (MOLT-4): 0.282 µM (active) | GI50 (786-0): 0.826 µM (active) | GI50 (MDA-MB-435): 0.273 µM (active) | GI50 (BT-549): 1.82 µM (inactive) | GI50 (SN12C): 0.504 µM (active) | GI50 (HT-29): 0.47 µM (active) | GI50 (CCRF-CEM): 0.191 µM (active) | GI50 (SF-295): 1.29 µM (inactive) | GI50 (RPMI-8226): 0.296 µM (active) | GI50 (Hs-578T): 0.617 µM (active) | GI50 (A498): 1.46 µM (inactive) | GI50 (HOP-62): 1.15 µM (inactive)

CC1=C[C@H]([C@H]2C=C(C)C(C(N)=O)=CN2Cc2c(Cl)cccc2Cl)N(Cc2c(Cl)cccc2Cl)C=C1C(N)=O
GI50 (HCT-15): > 75 µM | GI50 (HOP-92): 16 µM (inactive) | GI50 (SK-MEL-2): > 75 µM (inactive) | GI50 (T47D): 37 µM (inactive) | GI50 (NCI-H226): > 75 µM (inactive) | GI50 (MCF7): > 75 µM (inactive) | GI50 (SK-OV-3): > 75 µM (inactive) | GI50 (COLO 205): > 75 µM (inactive) | GI50 (MOLT-4): > 75 µM (inactive) | GI50 (786-0): > 75 µM (inactive) | GI50 (MDA-MB-435): > 75 µM (inactive) | GI50 (BT-549): > 75 µM (inactive) | GI50 (SN12C): > 75 µM (inactive) | GI50 (HT-29): > 75 µM (inactive) | GI50 (CCRF-CEM): 45.4 µM (inactive) | GI50 (SF-295): > 75 µM (inactive) | GI50 (RPMI-8226): 69.7 µM (inactive) | GI50 (Hs-578T): > 75 µM (inactive) | GI50 (A498): 55.3 µM (inactive) | GI50 (HOP-62): > 75 µM (inactive)

Cc1c(C=C(C#N)C#N)c(=O)n(C)c(=O)n1C
GI50 (HCT-15): > 100 µM | GI50 (HOP-92): > 100 µM (inactive) | GI50 (SK-MEL-2): > 100 µM (inactive) | GI50 (T47D): > 100 µM (inactive) | GI50 (NCI-H226): > 100 µM (inactive) | GI50 (MCF7): > 100 µM (inactive) | GI50 (SK-OV-3): > 100 µM (inactive) | GI50 (COLO 205): > 100 µM (inactive) | GI50 (MOLT-4): 95.3 µM (inactive) | GI50 (786-0): > 100 µM (inactive) | GI50 (MDA-MB-435): > 100 µM (inactive) | GI50 (BT-549): > 100 µM (inactive) | GI50 (SN12C): > 100 µM (inactive) | GI50 (HT-29): > 100 µM (inactive) | GI50 (CCRF-CEM): 19.6 µM (inactive) | GI50 (SF-295): > 100 µM (inactive) | GI50 (RPMI-8226): 72.8 µM (inactive) | GI50 (Hs-578T): > 100 µM (inactive) | GI50 (A498): > 100 µM (inactive) | GI50 (HOP-62): > 100 µM (inactive)

CSC(=S)Nc1cc(C)cc(C)n1
GI50 (HCT-15): > 31.6 µM | GI50 (HOP-92): > 31.6 µM (inactive) | GI50 (SK-MEL-2): > 31.6 µM (inactive) | GI50 (T47D): > 31.6 µM (inactive) | GI50 (NCI-H226): > 31.6 µM (inactive) | GI50 (MCF7): > 31.6 µM (inactive) | GI50 (SK-OV-3): > 31.6 µM (inactive) | GI50 (COLO 205): > 31.6 µM (inactive) | GI50 (MOLT-4): > 31.6 µM (inactive) | GI50 (786-0): 22.4 µM (inactive) | GI50 (MDA-MB-435): > 31.6 µM (inactive) | GI50 (BT-549): > 100 µM (inactive) | GI50 (SN12C): > 31.6 µM (inactive) | GI50 (HT-29): > 31.6 µM (inactive) | GI50 (CCRF-CEM): > 31.6 µM (inactive) | GI50 (SF-295): > 31.6 µM (inactive) | GI50 (RPMI-8226): > 31.6 µM (inactive) | GI50 (Hs-578T): > 31.6 µM (inactive) | GI50 (A498): > 100 µM (inactive) | GI50 (HOP-62): > 100 µM (inactive)

C=CCN1C[C@@H](C)N([C@@H](c2ccc(C(=O)N(CC)CC)cc2)c2cccc(OC)c2)C[C@@H]1C
GI50 (HCT-15): > 100 µM | GI50 (HOP-92): > 100 µM (inactive) | GI50 (SK-MEL-2): > 100 µM (inactive) | GI50 (T47D): > 100 µM (inactive) | GI50 (NCI-H226): > 100 µM (inactive) | GI50 (MCF7): 49.8 µM (inactive) | GI50 (SK-OV-3): > 100 µM (inactive) | GI50 (COLO 205): > 100 µM (inactive) | GI50 (MOLT-4): > 100 µM (inactive) | GI50 (786-0): > 100 µM (inactive) | GI50 (MDA-MB-435): > 100 µM (inactive) | GI50 (BT-549): > 100 µM (inactive) | GI50 (SN12C): > 100 µM (inactive) | GI50 (HT-29): > 100 µM (inactive) | GI50 (CCRF-CEM): 3.7 µM (inactive) | GI50 (SF-295): > 100 µM (inactive) | GI50 (RPMI-8226): > 100 µM (inactive) | GI50 (Hs-578T): > 100 µM (inactive) | GI50 (A498): > 100 µM (inactive) | GI50 (HOP-62): > 100 µM (inactive)
